{"source": "patent US20090176817A1", "about": "“Method of Treatment of Diarrhea-Predominant Irritable Bowel Syndrome in a Subject” (priority 2005, published 2009)", "tested_on": "diarrhea-predominant IBS subjects", "experiment": "Study S241.3.006: weekly diary questions on adequate relief", "type": "in vivo, human", "conditions": "for Number of months a subject was a responder: One month (Abdominal pain/discomfort) / Number of months a subject was a responder: One month (Abnormal bowel habits) / Number of months a subject was a responder: One month (IBS symptoms) / Number of months a subject was a responder: Three months (Abdominal pain/discomfort) / Number of months a subject was a responder: Three months (Abnormal bowel habits) / Number of months a subject was a responder: Three months (IBS symptoms) / Number of months a subject was a responder: Two months (Abdominal pain/discomfort) / Number of months a subject was a responder: Two months (Abnormal bowel habits) / Number of months a subject was a responder: Two months (IBS symptoms) / Number of months a subject was a responder: Zero months (Abdominal pain/discomfort) / Number of months a subject was a responder: Zero months (Abnormal bowel habits) / Number of months a subject was a responder: Zero months (IBS symptoms) / Overall responder rate, adequate relief of IBS symptoms / Overall responder rate, adequate relief of abdominal pain/discomfort / Overall responder rate, adequate relief of abnormal bowel habits: three-month treatment period; for Number of months a subject was a responder: One month (Abdominal pain/discomfort) / Number of months a subject was a responder: One month (Abnormal bowel habits) / Number of months a subject was a responder: One month (IBS symptoms) / Number of months a subject was a responder: Three months (Abdominal pain/discomfort) / Number of months a subject was a responder: Three months (Abnormal bowel habits) / Number of months a subject was a responder: Three months (IBS symptoms) / Number of months a subject was a responder: Two months (Abdominal pain/discomfort) / Number of months a subject was a responder: Two months (Abnormal bowel habits) / Number of months a subject was a responder: Two months (IBS symptoms) / Number of months a subject was a responder: Zero months (Abdominal pain/discomfort) / Number of months a subject was a responder: Zero months (Abnormal bowel habits) / Number of months a subject was a responder: Zero months (IBS symptoms): monthly LOCF", "protocol": "The study was conducted in 129 study centers in the United States. At total of 2080 subjects consented to participate, and 711 subjects were randomized. A total of 692 subjects were analyzed for efficacy and 701 subjects were analyzed for safety. Diagnosis and main criteria for inclusion were IBS subjects satisfying the Rome I criteria (1992); the diarrhea predominant sub-population of the Rome II criteria; and a minimum abdominal pain/discomfort, stool frequency and consistency determined during the run-in period. Subjects were treated with cilansetron 2 mg tablets given orally TID or matching placebo tablets given orally TID for 12 weeks double-blind treatment.\nThe primary efficacy parameter was the number of months that a subject was a responder for IBS symptoms (abdominal pain, abdominal discomfort, abnormal bowel habits) over the 12-week treatment period. A responder for a month (monthly responder) was defined as a subject who answered the weekly question with “yes” at least twice for that month.\nStudies S24 1.3.OO6, S24 1.3.0 1 1, and S24 1.3.009 used the following efficacy measurements: • The subjects answered the following three questions with “yes” or “no” using a phone diary at the end of each week: • a) During the last week, did you experience adequate relief of your IBS symptoms, such as abdominal pain, abdominal discomfort, abnormal bowel habits? • b) During the last week, did you experience adequate relief of your abdominal pain and/or discomfort? • c) During the last week, did you experience adequate relief of your abnormal bowel habits? • The subjects rated the following symptoms using the phone diary at the end of each day: • abdominal pain/discomfort (five-point scale); • stool consistency (seven-point Bristol Stool Scale); • stool frequency (number of bowel movements each day); • urgency (five-point scale); • straining (yes or no); • feeling of incomplete defecation (yes or no); • bloating or feeling of abdominal distension (five-point scale). • In Studies S241 A006 and S241.3.009, subjects completed the IBS-QOL Survey at Baseline (Day 1) and at the end of treatment. In Study S24 1.3.0 1 1, subjects completed the IBS-QOL Survey at Baseline (Day 1), at the end of the three-month treatment period, and at the end of rerandomized treatment.\nIn all three pivotal efficacy studies, the primary and main secondary efficacy parameters were based on the weekly diary questions on adequate relief and included the following: • 1. Number of months (one month equals four weeks) that a subject was a responder for the weekly diary questions on adequate relief. A responder for a month (monthly responder) was defined as a subject who answered the weekly question with “yes” at least twice for that month. For Studies S241.3.006 and S241.3.011, the primary efficacy parameter was the number of months that a subject was a responder for IBS symptoms during the 12-week treatment period. The two main secondary efficacy parameters were the number of months that a subject was a responder for abdominal pain/discomfort and abnormal bowel habits during the 12-week treatment period. For Study S241.3.009, the number of months that a subject was a responder for the weekly diary questions on adequate relief during Months 1 to 3 (the first 12 weeks) and Months 1 to 6 (24-week) was an additional key secondary efficacy parameter. • 2. Overall responder rate for the weekly diary questions on adequate relief. A responder was defined as a subject who answered the weekly question with “yes” for at least half of the answers available with a minimum of four weeks treatment duration. If a subject had less than four weeks treatment duration, the subject was considered a non-responder. The overall responder rate was the percentage of responders within a treatment group. For Study S241.3.009, the primary efficacy parameter was the overall responder rate for IBS symptoms during the 26-week treatment period. […]", "key": {"[1]": {"conditions": "Duration of IBS: ≦24 months, ITT, 2 mg TID"}, "[2]": {"conditions": "Female subjects, observed case, ITT, 2 mg TID"}, "[3]": {"conditions": "Male subjects, observed case, ITT, 2 mg TID"}}}
{"smiles": "Cc1nccn1C[C@H]1CCc2c(c3cccc4c3n2CCC4)C1=O", "note": "[Cilansetron, (R)-(−)-4,5,6,8,9,10-hexahydro-10-[(2-methyl-1H-imidazol-1-yl)methyl]-11H-pyrido-[3,2,1-jk]-carbazol-11-one]", "values": [{"measurement": "Number of subjects who were responders during the three-month treatment period: Adequate relief of abnormal bowel habits", "setting": "Duration of IBS: ≦24 months, 2 mg TID, observed case, ITT", "value": "27 (53) n (%)"}, {"measurement": "Number of months a subject was a responder: One month (Abdominal pain/discomfort)", "setting": "[1]", "value": "7 (14) n (%)"}, {"measurement": "Number of months a subject was a responder: One month (Abnormal bowel habits)", "setting": "[1]", "value": "4 (8) n (%)"}, {"measurement": "Number of months a subject was a responder: One month (IBS symptoms)", "setting": "[1]", "value": "5 (10) n (%)"}, {"measurement": "Number of months a subject was a responder: Three months (Abdominal pain/discomfort)", "setting": "[1]", "value": "25 (49) n (%)"}, {"measurement": "Number of months a subject was a responder: Three months (Abnormal bowel habits)", "setting": "[1]", "value": "22 (43) n (%)"}, {"measurement": "Number of months a subject was a responder: Three months (IBS symptoms)", "setting": "[1]", "value": "19 (37) n (%)"}, {"measurement": "Number of months a subject was a responder: Two months (Abdominal pain/discomfort)", "setting": "[1]", "value": "4 (8) n (%)"}, {"measurement": "Number of months a subject was a responder: Two months (Abnormal bowel habits)", "setting": "[1]", "value": "7 (14) n (%)"}, {"measurement": "Number of months a subject was a responder: Two months (IBS symptoms)", "setting": "[1]", "value": "8 (16) n (%)"}, {"measurement": "Number of months a subject was a responder: Zero months (Abdominal pain/discomfort)", "setting": "[1]", "value": "15 (29) n (%)"}, {"measurement": "Number of months a subject was a responder: Zero months (Abnormal bowel habits)", "setting": "[1]", "value": "18 (35) n (%)"}, {"measurement": "Number of months a subject was a responder: Zero months (IBS symptoms)", "setting": "[1]", "value": "19 (37) n (%)"}, {"measurement": "Number of months a subject was a responder: One month (Abdominal pain/discomfort)", "setting": "Female subjects, ITT, 2 mg TID", "value": "32 (13) n (%)"}, {"measurement": "Number of months a subject was a responder: One month (Abnormal bowel habits)", "setting": "Female subjects, ITT, 2 mg TID", "value": "27 (11) n (%)"}, {"measurement": "Number of months a subject was a responder: One month (IBS symptoms)", "setting": "Female subjects, ITT, 2 mg TID", "value": "36 (15) n (%)"}, {"measurement": "Number of months a subject was a responder: Three months (Abdominal pain/discomfort)", "setting": "Female subjects, ITT, 2 mg TID", "value": "103 (42) n (%)"}, {"measurement": "Number of months a subject was a responder: Three months (Abnormal bowel habits)", "setting": "Female subjects, ITT, 2 mg TID", "value": "104 (43) n (%)"}, {"measurement": "Number of months a subject was a responder: Three months (IBS symptoms)", "setting": "Female subjects, ITT, 2 mg TID", "value": "94 (39) n (%)"}, {"measurement": "Number of months a subject was a responder: Two months (Abdominal pain/discomfort)", "setting": "Female subjects, ITT, 2 mg TID", "value": "38 (16) n (%)"}, {"measurement": "Number of months a subject was a responder: Two months (Abnormal bowel habits)", "setting": "Female subjects, ITT, 2 mg TID", "value": "37 (15) n (%)"}, {"measurement": "Number of months a subject was a responder: Two months (IBS symptoms)", "setting": "Female subjects, ITT, 2 mg TID", "value": "38 (16) n (%)"}, {"measurement": "Number of months a subject was a responder: Zero months (Abdominal pain/discomfort)", "setting": "Female subjects, ITT, 2 mg TID", "value": "70 (29) n (%)"}, {"measurement": "Number of months a subject was a responder: Zero months (Abnormal bowel habits)", "setting": "Female subjects, ITT, 2 mg TID", "value": "75 (31) n (%)"}, {"measurement": "Number of months a subject was a responder: Zero months (IBS symptoms)", "setting": "Female subjects, ITT, 2 mg TID", "value": "75 (31) n (%)"}, {"measurement": "Overall responder rate, adequate relief of IBS symptoms", "setting": "[2]", "value": "127 (52) n (%)"}, {"measurement": "Overall responder rate, adequate relief of abdominal pain/discomfort", "setting": "[2]", "value": "134 (55) n (%)"}, {"measurement": "Overall responder rate, adequate relief of abnormal bowel habits", "setting": "[2]", "value": "135 (56) n (%)"}, {"measurement": "Number of months a subject was a responder: One month (Abdominal pain/discomfort)", "setting": "Male subjects, ITT, 2 mg TID", "value": "10 (10) n (%)"}, {"measurement": "Number of months a subject was a responder: One month (Abnormal bowel habits)", "setting": "Male subjects, ITT, 2 mg TID", "value": "13 (13) n (%)"}, {"measurement": "Number of months a subject was a responder: One month (IBS symptoms)", "setting": "Male subjects, ITT, 2 mg TID", "value": "9 (9) n (%)"}, {"measurement": "Number of months a subject was a responder: Three months (Abdominal pain/discomfort)", "setting": "Male subjects, ITT, 2 mg TID", "value": "36 (36) n (%)"}, {"measurement": "Number of months a subject was a responder: Three months (Abnormal bowel habits)", "setting": "Male subjects, ITT, 2 mg TID", "value": "25 (25) n (%)"}, {"measurement": "Number of months a subject was a responder: Three months (IBS symptoms)", "setting": "Male subjects, ITT, 2 mg TID", "value": "25 (25) n (%)"}, {"measurement": "Number of months a subject was a responder: Two months (Abdominal pain/discomfort)", "setting": "Male subjects, ITT, 2 mg TID", "value": "9 (9) n (%)"}, {"measurement": "Number of months a subject was a responder: Two months (Abnormal bowel habits)", "setting": "Male subjects, ITT, 2 mg TID", "value": "15 (15) n (%)"}, {"measurement": "Number of months a subject was a responder: Two months (IBS symptoms)", "setting": "Male subjects, ITT, 2 mg TID", "value": "15 (15) n (%)"}, {"measurement": "Number of months a subject was a responder: Zero months (Abdominal pain/discomfort)", "setting": "Male subjects, ITT, 2 mg TID", "value": "46 (46) n (%)"}, {"measurement": "Number of months a subject was a responder: Zero months (Abnormal bowel habits)", "setting": "Male subjects, ITT, 2 mg TID", "value": "48 (48) n (%)"}, {"measurement": "Number of months a subject was a responder: Zero months (IBS symptoms)", "setting": "Male subjects, ITT, 2 mg TID", "value": "52 (51) n (%)"}, {"measurement": "Overall responder rate, adequate relief of IBS symptoms", "setting": "[3]", "value": "41 (41) n (%)"}, {"measurement": "Overall responder rate, adequate relief of abdominal pain/discomfort", "setting": "[3]", "value": "45 (45) n (%)"}, {"measurement": "Overall responder rate, adequate relief of abnormal bowel habits", "setting": "[3]", "value": "39 (39) n (%)"}, {"measurement": "Overall responder rate, IBS symptoms", "setting": "females", "value": 52, "unit": "%"}, {"measurement": "Overall responder rate, abdominal pain/discomfort", "setting": "females", "value": 55, "unit": "%"}, {"measurement": "Overall responder rate, abnormal bowel habits", "setting": "females", "value": 56, "unit": "%"}, {"measurement": "Overall responder rate, IBS symptoms", "setting": "males", "value": 41, "unit": "%"}, {"measurement": "Overall responder rate, abdominal pain/discomfort", "setting": "males", "value": 45, "unit": "%"}, {"measurement": "Overall responder rate, abnormal bowel habits", "setting": "males", "value": 39, "unit": "%"}, {"measurement": "Overall responder rate, abdominal pain/discomfort", "setting": "non-Caucasians", "value": 48, "unit": "%"}]}
